Measurements from ChEMBL document CHEMBL1201862, “PubChem BioAssay data set” (2004).
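Results reflect a 48-hour exposure of cells in 96-well plates to compound at five concentrations. GI50 = concentration required for 50% inhibition of growth.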 The source made the active and inactive calls. Rule as the data show it: active = GI50 up to about 1.1 µM and inactive = higher.

What was measured:
Assay in all cases: DTP human tumour cell line panel, 48 h
SNB-19 = tested on: SNB-19
SK-MEL-5 = tested on: SK-MEL-5
UACC-62 = tested on: UACC-62
EKVX = tested on: EKVX
KM12 = tested on: KM12
UACC-257 = tested on: UACC-257
RPMI-8226 = tested on: RPMI-8226
OVCAR-8 = tested on: OVCAR-8
A549 = tested on: A549
OVCAR-5 = tested on: OVCAR-5
SK-MEL-28 = tested on: SK-MEL-28
CAKI-1 = tested on: CAKI-1
SF-295 = tested on: SF-295
MOLT-4 = tested on: MOLT-4
IGROV-1 = tested on: IGROV-1
MDA-MB-231 = tested on: MDA-MB-231
SK-MEL-2 = tested on: SK-MEL-2
NCI/ADR-RES = tested on: NCI/ADR-RES

Measured: GI50

CCOC(=O)c1nc2ccccc2nc1Oc1ccc(C(=O)OC)cc1
inactive: SNB-19 > 100 µM | SK-MEL-5 > 100 µM | UACC-62 > 100 µM | EKVX > 100 µM | KM12 > 100 µM | UACC-257 > 100 µM | RPMI-8226 > 100 µM | OVCAR-8 > 100 µM | A549 > 100 µM | OVCAR-5 > 100 µM | SK-MEL-28 > 100 µM | CAKI-1 > 100 µM | SF-295 > 100 µM | MOLT-4 2.87 µM | IGROV-1 > 100 µM | MDA-MB-231 > 100 µM | SK-MEL-2 > 100 µM | NCI/ADR-RES > 100 µM

C#CCn1c(=O)c(C)cn(/C(=C/C(=O)OCC)C(=O)OCC)c1=O
inactive: SNB-19 14.6 µM | SK-MEL-5 11.7 µM | UACC-62 12.2 µM | EKVX 5.87 µM | KM12 17.4 µM | UACC-257 14.4 µM | RPMI-8226 3.98 µM | OVCAR-8 2.49 µM | A549 16.2 µM | OVCAR-5 3.64 µM | SK-MEL-28 4.9 µM | CAKI-1 1.66 µM | SF-295 18.5 µM | MOLT-4 3.43 µM | IGROV-1 3.75 µM | MDA-MB-231 15.3 µM | SK-MEL-2 13.2 µM | NCI/ADR-RES 3.91 µM

Cc1nc2cccc(F)c2c(=O)n1-c1nnc(C2CC2)s1
inactive: SNB-19 > 10 µM | SK-MEL-5 > 10 µM | UACC-62 > 10 µM | EKVX > 10 µM | KM12 > 10 µM | UACC-257 > 10 µM | RPMI-8226 > 10 µM | OVCAR-8 > 10 µM | A549 > 10 µM | OVCAR-5 > 10 µM | SK-MEL-28 > 10 µM | CAKI-1 > 10 µM | SF-295 > 10 µM | MOLT-4 > 10 µM | IGROV-1 > 10 µM | MDA-MB-231 > 10 µM | SK-MEL-2 > 10 µM | NCI/ADR-RES > 10 µM

CCOC(=O)/C=C/[C@H](O[Si](c1ccccc1)(c1ccccc1)c1ccccc1)C(C)(C)C
inactive: SNB-19 > 31.6 µM | SK-MEL-5 10.2 µM | UACC-62 > 31.6 µM | EKVX > 31.6 µM | KM12 15.8 µM | UACC-257 11.1 µM | RPMI-8226 3.44 µM | OVCAR-8 > 31.6 µM | A549 23.3 µM | OVCAR-5 > 10 µM | SK-MEL-28 > 10 µM | CAKI-1 28.4 µM | SF-295 > 31.6 µM | MOLT-4 14.1 µM | IGROV-1 > 31.6 µM | MDA-MB-231 > 31.6 µM | SK-MEL-2 > 31.6 µM | NCI/ADR-RES 28.5 µM

NC1=NN(c2ccccc2)C2(c3ccncc3C(=O)O)C1C(N)=NN2c1ccccc1 (configuration not stated)
inactive: SNB-19 > 100 µM | SK-MEL-5 > 100 µM | UACC-62 > 100 µM | EKVX > 100 µM | KM12 > 100 µM | UACC-257 > 100 µM | RPMI-8226 > 100 µM | OVCAR-8 > 100 µM | A549 > 100 µM | OVCAR-5 > 100 µM | SK-MEL-28 > 100 µM | CAKI-1 > 100 µM | SF-295 > 100 µM | MOLT-4 > 100 µM | IGROV-1 > 100 µM | MDA-MB-231 > 100 µM | SK-MEL-2 > 100 µM | NCI/ADR-RES > 100 µM

CCOC(=O)CCc1cc(=O)oc2cc(O)cc(O)c12
inactive: SNB-19 > 100 µM | SK-MEL-5 > 100 µM | UACC-62 > 100 µM | EKVX 62.5 µM | KM12 > 100 µM | UACC-257 > 100 µM | RPMI-8226 > 100 µM | OVCAR-8 > 100 µM | A549 > 100 µM | OVCAR-5 > 100 µM | SK-MEL-28 > 100 µM | CAKI-1 > 100 µM | SF-295 > 100 µM | MOLT-4 > 100 µM | IGROV-1 > 100 µM | MDA-MB-231 > 100 µM | SK-MEL-2 > 100 µM | NCI/ADR-RES > 100 µM

O=C(Oc1c(Cl)cc(C2(c3cc(Cl)c(OC(=O)c4ccccc4)c(Cl)c3)CCCCC2)cc1Cl)c1ccccc1
inactive: SNB-19 17.6 µM | SK-MEL-5 10.6 µM | UACC-62 10.5 µM | EKVX 11.1 µM | KM12 5.08 µM | UACC-257 12.7 µM | RPMI-8226 11.9 µM | OVCAR-8 15.9 µM | A549 12.3 µM | OVCAR-5 14 µM | SK-MEL-28 14.7 µM | CAKI-1 5.01 µM | SF-295 13.4 µM | MOLT-4 5 µM | IGROV-1 10.6 µM | MDA-MB-231 13.7 µM | SK-MEL-2 11.2 µM | NCI/ADR-RES 11.6 µM

CC1C(=O)CC[C@@]2(C)C(=O)CCCC12O (some centres not stated)
inactive: SNB-19 > 100 µM | SK-MEL-5 > 100 µM | UACC-62 > 100 µM | EKVX > 100 µM | KM12 > 100 µM | UACC-257 > 100 µM | RPMI-8226 > 100 µM | A549 > 100 µM | OVCAR-5 > 100 µM | SK-MEL-28 > 100 µM | CAKI-1 > 100 µM | SF-295 > 100 µM | MOLT-4 > 100 µM | IGROV-1 > 100 µM | MDA-MB-231 > 100 µM | SK-MEL-2 > 100 µM | NCI/ADR-RES > 100 µM

CCN(CC)CC(O)c1ccc2ccc3ccccc3c2c1 (configuration not stated)
inactive: SNB-19 14.7 µM | SK-MEL-5 13.9 µM | UACC-62 15.3 µM | EKVX 14.1 µM | KM12 15.4 µM | UACC-257 16.4 µM | RPMI-8226 18.9 µM | OVCAR-8 16.7 µM | A549 15.7 µM | OVCAR-5 13.6 µM | SK-MEL-28 19.7 µM | CAKI-1 13.1 µM | SF-295 15.2 µM | MOLT-4 16.4 µM | IGROV-1 16.2 µM | MDA-MB-231 14.5 µM | SK-MEL-2 16.1 µM | NCI/ADR-RES 16.3 µM

Cn1c2ccc3cc2c(=S)c2cc(ccc21)OCCOCCOCCOCCOCCO3
inactive: SNB-19 > 10 µM | SK-MEL-5 > 10 µM | UACC-62 > 10 µM | EKVX > 10 µM | KM12 > 10 µM | UACC-257 > 10 µM | RPMI-8226 > 10 µM | OVCAR-8 > 10 µM | A549 > 10 µM | OVCAR-5 > 10 µM | SK-MEL-28 > 10 µM | CAKI-1 > 10 µM | SF-295 > 10 µM | MOLT-4 > 10 µM | IGROV-1 > 10 µM | MDA-MB-231 > 10 µM | SK-MEL-2 > 10 µM | NCI/ADR-RES > 10 µM

COc1cc2c(cc1OCCCN1C(=O)c3cccc4cccc(c34)C1=O)N=C[C@@H]1CCCN1C2=O
inactive: SNB-19 > 92 µM | SK-MEL-5 20.4 µM | UACC-62 > 62.7 µM | EKVX > 100 µM | KM12 16.3 µM | UACC-257 40.1 µM | RPMI-8226 18.2 µM | OVCAR-8 36.6 µM | A549 > 100 µM | OVCAR-5 > 89.1 µM | SK-MEL-28 > 65.9 µM | CAKI-1 25.4 µM | SF-295 > 95.1 µM | MOLT-4 14 µM | IGROV-1 12.2 µM | MDA-MB-231 > 55.8 µM | SK-MEL-2 65.5 µM | NCI/ADR-RES 41.8 µM
